One may read the melting point as the temperature of the solid-liquid transition.

This is an account of results in a melting point compilation (Tetko et al.; mined from patent text by program, amines drawn as free bases though some values may be those of a salt).

In turn, `O=C(Nc1ccc(OC(F)(F)F)cc1)c1ccccc1NCc1ccc(=O)[nH]c1` had a melting point of 189 °C.
For `Cc1ncc([N+](=O)[O-])n1C(=O)Nc1ccccc1` the value was 218 to 220 °C; for `COC(=O)C1=C(OC)c2ccccc2S(=O)(=O)N1C`, 79 to 80 °C; for `O=C(O)c1cccc(CNc2n[nH]c3ncnc(Nc4cccc(Cl)c4)c23)c1`, 294 to 296 °C.
Consider `CCn1cc(C(=O)O)c(=O)c2cnc(N3CCN(Cc4ccccc4)CC3)nc21`, for which the melting point was determined as 207 °C.
Then `C#Cc1c(C(C)C)nc(-c2ccccc2)n1-c1ccc(F)cc1`, with 148 to 150 °C.
The compound `COc1cc(C(=O)c2ncc3ccc(N)cn23)ccc1[N+](=O)[O-]` returned a melting point of 252 °C.
Then `O=C(N[C@@H](Cc1ccc2ccccc2c1)C(=O)O)OCc1ccccc1`, with 109 to 111 °C.
For `CCCCCNc1cccc2c1C(=O)N(C1(C)CCC(=O)NC1=O)C2=O` (stereo not drawn) the value was 96 to 98 °C; for `CCOc1ccc(C(=O)N2CCNC2=Nc2c(Cl)cccc2Cl)cc1`, 146 to 148 °C; for `COc1ccccc1NC(=O)Nc1ccc(C2CCN(C(=O)Nc3ccc(OCC(O)CO)cc3Cl)CC2)cc1` (stereo not drawn), 158 to 161 °C.
Then `CCc1cnn(CC(=O)O)c1OCCCc1cn(-c2ccc(C(F)(F)F)cn2)nc1C(C)C`, with 111 to 112 °C.
Regarding `N[C@@H]1C(=O)Nc2ccccc2-c2ccccc21`, the melting point is greater than 225 °C.
For `O=C(N[C@@H](Cn1cccn1)C(=O)O)OCc1ccccc1` the value was 166 to 168 °C.
For `O=C(O)CC1Cc2ccccc2C1` the value was 85 to 88 °C; for `CCS(=O)(=O)c1ccc(-c2cnn(-c3cccc(Cl)c3)c(=O)c2C2CCCCC2)cc1`, 85 to 90 °C; for `CC1(C)CCSc2cc(C(=O)O)ccc21`, 202 to 204 °C.
For the compound `O=C1c2ccc([N+](=O)[O-])cc2C(=O)N1CCc1ccccc1`, the melting point lay in the range of 142 to 143 °C.
Then `COC(=O)/C=C/c1ccc(CC(C)NCC(O)c2cccc(F)c2)cc1` (stereo not drawn), with 75 to 110 °C; and `O=c1c2cc(Cl)ccc2nc2n1CCC2=Cc1ccccc1`, with 225 to 227 °C; and `C=C=CS(=O)(=O)c1ncn(C(=O)N(CC)CC)n1`, with 98 to 100 °C.
Then `CC(=O)OCc1nc2c([N+](=O)[O-])cc(Br)cc2n1C`, with 143 to 145 °C; and `CCCCCCCCCCCCCCCCCCCCC(=S)NCCCN(CC)CC`, with 61 °C; and `COC(=O)c1c(-c2ccc(C)cc2)ccc2ccccc12`, with 109 to 111 °C.
Then `Brc1ccc2sc(-c3ccccc3)c(N3CCN(Cc4ccccc4)CC3)c2c1`, with 156 to 157 °C; and `Cc1cc2c(c3c1NC(=O)C(C)(C)C3)OC(C)(CBr)C2` (stereo not drawn), with 158 to 160 °C.
Turning to `CCCCCCCCOc1cc(CBr)c(OCCCCCCCC)cc1CBr`, the melting point worked out at 83 °C.
Then `NC(=S)c1c(Cl)cncc1Cl`, with 186 to 187 °C.
For `O=C(O)C1Oc2ccccc2C2(CC2)c2cccc(Cl)c2O1` (stereo not drawn) the value was 154 to 158 °C; for `Cc1nc(C)c(Cl)c(NCc2nccc(N(C)CCCSCCn3c([N+](=O)[O-])cnc3C)c2Cl)n1`, 123 to 126 °C.
Then `O=C1c2ccc(N=C(c3ccccc3)N3CCCCC3)cc2C(=O)c2ccc(N=C(c3ccccc3)N3CCCCC3)cc21`, with 264 to 266 °C; and `Cc1cc2c(cn1)c(C#N)c(-c1ncc(S(=O)(=O)NC(C)C)cn1)n2C1CCC1`, with 242 to 243 °C.
`Fc1ccc(Nc2ncnc3[nH]ccc23)cc1Cl`: the melting point lay in the range of 274 to 275 °C.
For `COc1cc(Nc2c(C#N)cnc3cc(/C=C/CCCN4CCOCC4)c(OC)cc23)c(Cl)cc1Cl` the value was 110 to 112 °C; for `CC(C)(C=O)C(=O)C(C)(Cc1ccc(C(C)(C)C)cc1)C(=O)O` (stereo not drawn), 116 to 118 °C.
For `CC12CCC3C(CC=C4NC(=O)CCC43C)C1CC=C2I` (stereo not drawn) the value was 227 to 230 °C; for `CCOC(=O)CCC(=NOCc1ccc(OCc2nc(-c3ccccc3)oc2C)cc1)c1ccc(Oc2ccccc2)cc1`, 118 to 119 °C; for `CCCCCCCCCCCCCCCCCCOc1cc(C(=O)N(CC(=O)O)CC(=O)O)cc([N+](=O)[O-])c1`, 110 to 112 °C.
Then `CCNS(=O)(=O)c1ccc(N2N=C(C)C(=CNc3ccccc3OCC)C2=O)cc1`, with 238 °C; and `COC(=O)Cc1c(F)cc(O)cc1F`, with 75.5 to 77.5 °C; and `COc1cc(Nc2nccc(-c3sc(-c4cccnc4)nc3C)n2)cc(OC)c1`, with 229 to 230 °C.
In the case of `CC(=O)CCc1ccc(-c2ccccc2)cc1`, the melting point was 76 to 77 °C.
Take `CC(C)c1c(CO)c(-c2ccc(F)cc2)c2n1CCCC2`: the melting point is 97 to 99 °C.
For `Cc1cccc(-c2[nH]c(C(C)C)nc2-c2cccc(-c3ccc4c(c3)CCCS4)c2)n1` the value was 115 to 117 °C.
`CCCCCCCCC/C=C/C(=O)N[C@H]1CCCNC(=O)C1` returned a melting point of 87 to 88 °C.
Then `COc1ccc(C(O)CNCc2cccc(OC)c2OC)cc1OC` (stereo not drawn), with 96 to 97 °C.
Then `O=C(COc1cc(-c2ccccc2)nc2cccc(Cl)c12)N1CCOCC1`, with 168 °C.
For `COc1cc(/C=C/c2ccc(C)cc2)cc(OC)c1OC` the value was 125 to 127 °C; for `O=S(=O)(O)c1cc(NCc2c(F)c(F)c(C(F)(F)F)c(F)c2F)ccc1O`, greater than 300 °C; for `CC(=O)O[C@H]1CC[C@H](CCCCCC(=O)O)CC1`, 82 to 86 °C.
Take `CCN1C(=O)Nc2ccc(Cl)cc2C1(C#CC1(C)CC1)C(F)(F)F` (stereo not drawn): the melting point fell in the range of 219 to 222 °C.
For `Cc1c(Sc2ccc(Cl)cc2)c2cc(NS(C)(=O)=O)ccc2n1CC(=O)O` the value was 214 °C.
For `COC(=O)C(C)(C)N(OC(C)(C)C#N)C(C)(C)C` the value was 78 to 85 °C; for `CS(=O)(=O)c1ccc(-c2c(-c3ccccc3)nc3sccn23)cc1`, 190 to 192 °C; for `Cc1nc2ncnn2c(N2CCC(C)CC2)c1-c1ccc(F)cc1Cl`, 236 °C.
Then `COc1cccc(Nc2n[nH]c(N)c2C#N)c1`, with 177 to 180 °C.
Consider `O=Cc1c2ccccc2c(Cl)c2cccc(Cl)c12`, for which the melting point was in the range of 180 to 183 °C.
Then `CN1CCC(c2c[nH]c3ccc(C(=O)c4ccccn4)cc23)CC1`, with 90 °C.
Then `Cc1ccc(C(=O)c2cccc(S)n2)cc1`, with 179 to 181 °C.
Then `Cc1ccnc(N2CCN(C3Sc4ccccc4NC3=O)CC2)c1` (stereo not drawn), with 245 °C.
In the case of `CCC(C)(C)N1CCNC(S(=O)(=O)Nc2ccc3[nH]c(C(=O)N4CCN(c5ncccc5NC(C)C)CC4)cc3c2)C1` (stereo not drawn), the melting point lay in the range of 158 to 160 °C.
Then `Cc1ccccc1CN1CCC(n2c(C)c(-c3ccccc3)[nH]c2=O)CC1`, with 218 to 220 °C; and `CCCNC(=S)N1CCc2[nH]cnc2C1`, with 151 °C; and `CCn1c(=O)ccc2cnc(Nc3ccc(OC)cc3)nc21`, with 196 to 197 °C.
Then `[N-]=[N+]=NCCCc1cn(S(=O)(=O)c2c(Cl)nc3sccn23)c2ccc(F)cc12`, with 84 to 86 °C; and `C#CCN1CC(=O)N(c2cc(Cl)ccc2C)C1=S`, with 131 to 134 °C; and `OCC1CC(n2c(Cl)nc3cc(Cl)c(Cl)cc32)C(O)C1O` (stereo not drawn), with 206 to 210 °C.
For `O=C(O)CNc1cc(C(=O)O)nc2ccccc12` the value was 260 to 261 °C; for `COc1ccc2c(c1)C13CCN(C)C(C2)C1(O)C=CC(=O)C3` (stereo not drawn), 213 to 215 °C; for `O=C(Nc1cccc(C(F)(F)F)c1F)c1cccnc1NCc1ccc(=O)[nH]c1`, 219 to 222 °C.
`CS(=O)(=O)Nc1ccc(C(=O)C2CCN(CCCOc3ccc([N+](=O)[O-])cc3)CC2)cc1` returned a melting point of 162 to 164 °C.
For `C#CCN(Cc1ccc2nc(NC(=O)C(C)(C)C)[nH]c(=O)c2c1)c1ccc(S(=O)(=O)N(C)C)cc1` the value was 217 to 220 °C; for `CCCN(C(=O)Oc1ccccc1)C1Cc2ccc(-c3ccc(=O)[nH]n3)cc2C1` (stereo not drawn), 140 to 141 °C.
On to `CC(=O)OC[C@@H]1C=C[C@H](n2cnc3c(Cl)nc(N)nc32)C1`, for which the melting point lay in the range of 124 to 127 °C.
As for `N#Cc1cc(C=O)cnc1Cl`, the melting point was found to be 96 °C.
Then `CCCCCCCCCCCCC1CC(=O)N(NC(=O)CCc2cc(C(C)(C)C)c(O)c(C(C)(C)C)c2)C1=O` (stereo not drawn), with 55 to 60 °C.
Then `CCc1ccc(C=NNC(=O)c2ccc(O)cc2)s1`, with 194 °C; and `O=c1c2c(Cl)cccc2nc(C(S)c2ncnc3[nH]cnc23)n1-c1ccccc1F` (stereo not drawn), with 244 °C.
For `O=C1Cc2cccc(OCC3CO3)c2ON1` (stereo not drawn) the value was 158 to 160 °C.
`CN(C)CCc1[nH]c2ccccc2c1CSC(=S)N(C)C` yielded a melting point of 125 to 128 °C.
`COC1OCC[C@@H]1NC(=O)[C@H](Cc1ccccc1)NC(=O)CNC(=O)COc1ccc2c(c1)Nc1ccccc1S2` (stereo partly drawn) registered a melting point of 203 to 204 °C.
`CCCn1nc(C(C)C)c(C(=O)O)c1Cc1ccc(-c2ccccc2NS(=O)(=O)C(F)(F)F)cc1`: the melting point fell in the range of 75 to 78 °C.
For `CC(=O)OC1CSC(Oc2cncc(-c3cccnc3)c2)C(OC(C)=O)C1OC(C)=O` (stereo not drawn) the value was 149 °C.
Then `O=C(OCc1ccc(Cl)cc1)c1ncccc1OCc1ccc(Cl)cc1`, with 92 to 94 °C; and `Cc1nc(NC(=O)c2cccc(C#N)c2)sc1C(=O)NCc1ccccc1`, with 207 to 208 °C; and `COc1ccc(OC)c2c(Nc3ccc(Cl)cc3F)c(C#N)cnc12`, with 197 to 199 °C.
As for `COc1ccc(C(=O)OC2CC3C(=O)NC4(C(=O)NS(=O)(=O)C5CC5)CC4C=CCCCCCC(NC(=O)OC(C)(C)C)C(=O)N3C2)cc1` (stereo not drawn), the melting point lay within 151 to 153 °C.
Consider `CCCCOC(=O)C(C#N)=C1Nc2ccccc2O1`, for which the melting point lay in the range of 116 to 119 °C.
